Measured values as given in the supplement of paper PMC3937590.

Assays:
Assay in all cases: -log10 GI50 (growth inhibition 50%) (-log10(M)); higher = more potent growth inhibition
HCC1937 = tested on: HCC1937
In short: (§1)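 Breast cancer cell lines were exposed to each compound for 72 hours at nine doses in 1:5 serial dilution, in triplicate, with a luminescence read-out against a time-zero plate. A Gompertz curve was fitted to the dose-response data by nonlinear least squares. The value is minus log10 of GI50, the molar concentration giving the set level of growth inhibition. Values equal to the top dose carry a < qualifier.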

MDAMB157 = tested on: MDAMB157
In short: as §1

184A1 = tested on: 184A1
In short: as §1

SUM1315MO2 = tested on: SUM1315MO2
In short: as §1

MDAMB231 = tested on: MDAMB231
In short: as §1

T47D = tested on: T47D
In short: as §1

HCC1428 = tested on: HCC1428
In short: as §1

HCC1954 = tested on: HCC1954
In short: as §1

SUM185PE = tested on: SUM185PE
In short: as §1

HCC3153 = tested on: HCC3153
In short: as §1

600MPE = tested on: 600MPE
In short: as §1

SUM159PT = tested on: SUM159PT
In short: as §1

LY2 = tested on: LY2
In short: as §1

BT483 = tested on: BT483
In short: as §1

MDAMB415 = tested on: MDAMB415
In short: as §1

BT474 = tested on: BT474
In short: as §1

MCF7 = tested on: MCF7
In short: as §1

HCC2185 = tested on: HCC2185
In short: as §1

MDAMB175VII = tested on: MDAMB175VII
In short: as §1

SMILES | -log10 GI50 (HCC1937) | -log10 GI50 (MDAMB157) | -log10 GI50 (184A1) | -log10 GI50 (SUM1315MO2) | -log10 GI50 (MDAMB231) | -log10 GI50 (T47D) | -log10 GI50 (HCC1428) | -log10 GI50 (HCC1954) | -log10 GI50 (SUM185PE) | -log10 GI50 (HCC3153) | -log10 GI50 (600MPE) | -log10 GI50 (SUM159PT) | -log10 GI50 (LY2) | -log10 GI50 (BT483) | -log10 GI50 (MDAMB415) | -log10 GI50 (BT474) | -log10 GI50 (MCF7) | -log10 GI50 (HCC2185) | -log10 GI50 (MDAMB175VII)
CC(=O)Nc1cccc(-n2c(=O)n(C3CC3)c(=O)c3c(Nc4ccc(I)cc4F)n(C)c(=O)c(C)c32)c1 | < 4.78 | 6.57 | 8.67 | 7.19 | 6.86 | < 4.78 | < 4.78 | 6.79 | 4.9 | < 4.78 | 8.17 | 7.93 | < 4.78 | < 4.78 | 6.19 | < 4.78 | < 4.78 | < 4.78 | 7.88
CC(C)Oc1ccc(C(=O)N[C@H](CNC(=O)CN(C)C)Cc2ccc(-c3cn4cccc([C@H](C)O)c4n3)cc2)cc1Cl | 7.36 | 7.48 | 5.1 | 7.46 | 5.91 | 7.29 | 5.99 | 7.6 | 5.43 | 7.22 | < 4.48 | 7.43 | – | 6.44 | 7.08 | 5.46 | 5.74 | 7.41 | 6.76
CCNCCCNC/C=C\CNCCCNCC | 5.24 | 2.96 | 3.2 | 2.95 | 4.75 | 5.67 | 3.74 | 6.52 | < 3.3 | 5.24 | 3.68 | 4.03 | 2.9 | 3.27 | 4.17 | 4.24 | 3.46 | 3.39 | 3.21
CCn1cc(-c2ccnc3[nH]c(-c4cccc(CN(C)C)c4)cc23)c(-c2ccc(NC(=O)N(C)C)cc2)n1 | 5.73 | 6.23 | 6.1 | 5.9 | 5.47 | 5.36 | 5.69 | 5.57 | 5.95 | 4.97 | 5.1 | 5.77 | 5.03 | 5.35 | 5.76 | 5.2 | 5.06 | 6.3 | 5.07
C[C@@H](Oc1cc(-n2cnc3ccc(CN4CCN(C)CC4)cc32)sc1C(N)=O)c1ccccc1C(F)(F)F | 7.5 | 8.02 | 5.18 | 7.52 | 7.75 | 5.56 | 5.33 | 8.16 | 5.71 | 7.78 | 5.16 | 7.49 | 5.8 | 5.35 | 7.15 | 5.07 | 6.5 | 8.29 | 5.21
O=C(O)c1ccc(-c2c[nH]c3ncc(-c4ccccc4)cc23)cc1C1CCCC1 | < 4.48 | < 4.18 | 5.95 | 6.1 | < 4.18 | < 4.48 | < 4.18 | < 4.48 | 4.79 | < 4.48 | < 4.18 | < 4.48 | 5.15 | < 4.48 | < 4.48 | < 4.18 | < 4.48 | < 4.18 | < 4.18
O=C1NC(=O)/C(=C/c2ccc3nccc(-c4ccncc4)c3c2)S1 | 6.09 | 6.17 | 7.78 | 6.49 | 5.21 | 6.95 | 6.28 | 6.68 | 7.13 | 5.54 | 6.31 | 6.72 | 5.87 | 6.8 | 6.26 | 6.8 | 5.56 | 6.9 | 6.33
C=CCNC1=C2C[C@@H](C)C[C@H](OC)[C@H](O)[C@@H](C)/C=C(\C)[C@H](OC(N)=O)[C@@H](OC)/C=C\C=C(/C)C(=O)NC(=CC1=O)C2=O [17-AAG] | 6.88 | – | 7.93 | 7.72 | 6.11 | 5.97 | 8.39 | 7.5 | 7.47 | 6.82 | 6.65 | 7.46 | 6.99 | 6.68 | 7.45 | 5.84 | 6.25 | 6.93 | 7.39
COc1cc2ncnc(Nc3cccc(Cl)c3)c2cc1OC [AG1478] | 4.89 | 4.48 | – | 6.08 | < 3.78 | 4.74 | < 3.78 | 5.64 | < 3.78 | < 3.78 | 4.11 | 4.76 | < 3.78 | < 3.78 | < 3.78 | 6.17 | 4.05 | 4.57 | 6.08
CCc1c2c(nc3ccc(OC(=O)N4CCC(N5CCCCC5)CC4)cc13)-c1cc3c(c(=O)n1C2)COC(=O)[C@]3(O)CC [CPT-11] | 5.14 | 5.43 | 5.44 | 5.34 | 5.06 | 6.31 | 4.64 | 4.72 | 4.99 | 4.73 | 4.71 | 5.37 | 4.88 | 5.22 | 4.94 | 4.69 | 4.64 | 5.5 | 4.17
O=C(O)C1(C(=O)O)CCC1.[NH2-].[NH2-].[Pt+2] [Carboplatin] | 4.47 | 4.07 | 4.9 | 4.57 | 4.09 | 4.02 | 3.86 | 4.42 | 3.94 | 4.45 | 3.82 | 4.55 | 4.34 | 5.82 | 3.79 | 3.97 | 3.64 | 4.88 | 4.44
N.N.[Cl][Pt][Cl] [Cisplatin] | 5.48 | 4.62 | 5.53 | 5.75 | 4.65 | 5.27 | 4.33 | 5.29 | 4.03 | 5.12 | 4.33 | 5.4 | 5.11 | 4.05 | 3.84 | 4.42 | 4.66 | 5.71 | 5.37
CCN(CC)C(=S)SSC(=S)N(CC)CC [Disulfiram] | 6.89 | 7.22 | 4.9 | 6.36 | 5.85 | 7.01 | 4.97 | < 4.18 | < 4.18 | 5.13 | 7.1 | 6.65 | 5.01 | 4.18 | 4.89 | < 4.18 | 4.45 | < 4.18 | 7.02
CC(=O)O[C@@]12CO[C@@H]1C[C@H](O)[C@@]1(C)C(=O)[C@H](O)C3=C(C)[C@@H](OC(=O)[C@H](O)[C@@H](NC(=O)OC(C)(C)C)c4ccccc4)C[C@@](O)([C@@H](OC(=O)c4ccccc4)[C@H]21)C3(C)C [Docetaxel] | – | 8.76 | 6.13 | 8.71 | 8.66 | 8.51 | 7.77 | 8.78 | 6.4 | 8.01 | 7.61 | 8.77 | 8.2 | 7.65 | 8.48 | 8.2 | 7.91 | 8.52 | 7.8
COc1cccc2c1C(=O)c1c(O)c3c(c(O)c1C2=O)C[C@@](O)(C(=O)CO)C[C@@H]3O[C@H]1C[C@H](N)[C@H](O)[C@H](C)O1 [Doxorubicin] | 6.49 | 6.49 | 6.95 | 6.73 | 6.44 | 7.37 | 5.92 | 6.74 | 6.51 | 6.48 | 6.69 | 6.77 | 6.71 | 7 | 6.52 | 6.51 | 6.11 | 7.29 | 6.48
COc1cccc2c1C(=O)c1c(O)c3c(c(O)c1C2=O)C[C@@](O)(C(=O)CO)C[C@@H]3O[C@H]1C[C@H](N)[C@@H](O)[C@H](C)O1 [Epirubicin] | 6.69 | 6.31 | 6.68 | 7.44 | 6.57 | – | 5.88 | 6.7 | 6.39 | 6.19 | – | 6.86 | 6.86 | 6.78 | 6.58 | 5.17 | 6.45 | 6.91 | 7.05
O=c1[nH]cc(F)c(=O)[nH]1 [Fluorouracil] | 3.66 | 3.11 | 3.88 | 3.37 | 3.75 | – | 4.99 | 4.79 | 2.53 | 3.45 | 4.11 | 4.68 | 4.43 | 4.48 | 3.66 | 3.75 | 4.37 | 3.42 | 3.96
COc1cc2ncnc(Nc3ccc(F)c(Cl)c3)c2cc1OCCCN1CCOCC1 [Gefitinib] | 5.08 | 4.92 | < 4.48 | 5.83 | < 4.48 | 4.8 | 4.97 | 5.92 | 5.11 | < 4.48 | 5.21 | 5.07 | 4.62 | 5.21 | 5.09 | 6.14 | < 4.48 | 4.53 | 6.55
COC1=C2C[C@@H](C)C[C@H](OC)[C@H](O)[C@@H](C)/C=C(\C)[C@H](OC(N)=O)[C@@H](OC)/C=C\C=C(/C)C(=O)NC(=CC1=O)C2=O [Geldanamycin] | 7.49 | 7.71 | 8.41 | 7.7 | 7.65 | 7.62 | 7.55 | 8.14 | 7.71 | 7.18 | 7.43 | 8.21 | 7.24 | 6.84 | 7.52 | 7.84 | 6.62 | 7.69 | 7.75
COC(=O)Nc1nc2cc(C(=O)c3ccccc3)ccc2[nH]1 [Mebendazole] | 4.9 | 6.3 | < 4.18 | < 4.18 | 6.46 | 5.66 | < 4.18 | 6.82 | 6.3 | 6.69 | 5 | 6.69 | 6.32 | 5.67 | 6.28 | 6.5 | 6.22 | < 4.18 | 6.6
O=C(O)C(=O)O.[NH-][C@@H]1CCCC[C@H]1[NH-].[Pt+2] [Oxaliplatin] | 5.1 | 4.8 | 5.89 | 4.86 | 4.9 | 5.55 | 5.09 | 5.95 | 4.39 | 5.19 | – | 5.6 | 5.45 | 4.56 | 4.53 | 4.73 | 5.31 | 5.54 | 5.44
CC[C@@]1(O)C(=O)OCc2c1cc1n(c2=O)Cc2cc3c(CN(C)C)c(O)ccc3nc2-1 [Topotecan] | – | 6.4 | 6.88 | 8.08 | 5.67 | – | 6.35 | 6.55 | 7.2 | 6.68 | – | 6.65 | 6.59 | 7.38 | 6.73 | 5.6 | 5.89 | 7.39 | 5.95
CCC1=C[C@@H]2CN(C1)Cc1c([nH]c3ccccc13)[C@@](C(=O)OC)(c1cc3c(cc1OC)N(C)[C@H]1[C@@](O)(C(=O)OC)[C@H](OC(C)=O)[C@]4(CC)C=CCN5CC[C@]31[C@@H]54)C2 [Vinorelbine] | 6.65 | 7.89 | – | 8.65 | 8.39 | 5.34 | 5.66 | 6.24 | 8.08 | 7.29 | 5.97 | 7.91 | 7.88 | 8.14 | 7.73 | 7.32 | 7.85 | 5.23 | 7.41
